Peptide text beside a SMILES is read from it.
Assays:
[1] = tested on: Neonatal foreskin primary human epidermal melanocytes; experiment: Melanin content assay (OD405 nm of cell lysate); assay type: cell-based; settings: for % Melanin / OD405 nm / % Increase in Melanin / Normalized melanin content / Normalized melanin content at 0.25 µM: 72 hours; for Normalized melanin content at 0.25 µM: Homo sapiens, Melanocyte, read-out: Normalized melanin content, 100*(% Melanin Content)/(% Cellular viability); for Increase in melanin content of melanocytes (in words): data of Table 2
Procedure: (§1) All test compounds were purchased from SIGMA-ALDRICH as stocks of 10 mM in 100% DMSO. They were tested at various concentrations in cell culture (see below). Forskolin (SIGMA Cat. #F6886) and IBMX (SIGMA Cat. #I5879) were used as reference comparators, as they have been reported to increase melanin content. Neonatal foreskin primary human epidermal melanocytes were procured from Cascade Biologicals (labelled passage P0). Melanocytes were maintained in Medium 254CF (Cascade Cat. #M-254CF-500) supplemented with human melanocyte growth supplement (Cascade; Cat. #S-002-5), hereafter referred to as MGM. Cells were maintained at 37° C. in a humidified incubator with 5% CO2 atmosphere.
(§2) 50,000 cells were seeded in 24 well plate in MGM; after 24 hours, cultures were treated with various concentrations of the test materials and left undisturbed for a further period of 72 hours. Comparative vehicle controls of 0.25% (v/v) DMSO were also set up in parallel, simultaneously. At the end of the incubation period, cell viability was determined using the calcein method.
After calcein fluorescence readings were obtained, cells were drained and added fresh 125 μl of 1N NaOH (in 10% DMSO) per well. Cells were lysed by resuspension and incubation (60° C./1 hour). Then this lysate was transferred to a fresh […] and measured OD405 nm in a TECAN M1000 plate reader (estimate of relative melanin content).
(§3) Calcein fluorescence values were ratio converted in 0 to 100 scale (% viability), with 100 representing the value of the 0.25% DMSO sample. % Melanin content was calculated as the ratio between OD405nm value of any sample to that of DMSO reference sample. Normalized melanin content value was then calculated as 100*(% Melanin Content)/(% Cellular viability).
The percentage Increase in melanin content was estimated as [(Normalized melanin content)−100]

Tyrosinase = target: T1, Tyrosinase (Homo sapiens, UniProt P14679); experiment: Tyrosinase assay; assay type: biochemical; settings: 0.25 μM
T1 sequence (P14679 19-529): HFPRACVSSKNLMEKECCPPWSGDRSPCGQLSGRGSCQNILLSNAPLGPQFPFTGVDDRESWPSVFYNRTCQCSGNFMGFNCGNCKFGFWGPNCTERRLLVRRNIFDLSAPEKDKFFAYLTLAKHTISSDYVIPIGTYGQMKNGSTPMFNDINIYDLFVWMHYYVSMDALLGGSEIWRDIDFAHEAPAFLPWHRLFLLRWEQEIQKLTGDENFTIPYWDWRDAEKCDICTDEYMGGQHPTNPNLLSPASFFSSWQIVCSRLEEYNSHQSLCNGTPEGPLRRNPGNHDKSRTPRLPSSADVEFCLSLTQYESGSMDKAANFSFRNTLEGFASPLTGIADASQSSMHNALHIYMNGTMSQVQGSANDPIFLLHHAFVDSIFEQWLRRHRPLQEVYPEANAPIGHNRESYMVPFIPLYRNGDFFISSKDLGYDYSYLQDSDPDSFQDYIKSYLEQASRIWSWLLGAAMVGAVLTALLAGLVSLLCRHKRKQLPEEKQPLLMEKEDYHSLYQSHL

[2] = tested on: Neonatal foreskin primary human epidermal melanocytes; experiment: Cell viability by the calcein method; assay type: cell-based
Procedure: as §1, §2
Briefly, cell culture spent media was removed and cells washed once with 0.4 ml of 1×PBS—Ca—Mg solution. Fresh 1 μM calcein-AM was added (0.2 ml/well), including to control wells without cells. Plates were covered with aluminium foil and incubated for 30 minutes. at 37° C. in the regular CO2 incubator. Calcein fluorescence was then measured (λmax 490 nm and λmax 520 nm) in TECAN® M1000 Infinite series plate reader.
as §3

[3] = 0.25 μM, relative to DMSO control
[4] = 0.25 μM, normalized melanin content minus 100

Compound	% increase in Tyrosinase activity (Tyrosinase) [%]	% Melanin [1, 3] [%]	OD405 nm ([1]; 0.25 μM, control 0.113)	% Increase in Melanin [1, 4] [%]	% Increase in Melanin ([1]; 3.125 μM) [%]	% Melanin ([1]; 3.125 μM) [%]	Normalized melanin content ([1]; 3.125 μM)	OD405 nm ([1]; 3.125 μM, control 0.165)	% Increase in Melanin ([1]; 12.5 μM) [%]	% Melanin ([1]; 12.5 μM) [%]	Normalized melanin content ([1]; 12.5 μM)	OD405 nm ([1]; 12.5 μM, control 0.165)	% Increase in Melanin ([1]; 25 μM) [%]	% Melanin ([1]; 25 μM) [%]	Normalized melanin content ([1]; 25 μM)	OD405 nm ([1]; 25 μM, control 0.165)	Normalized melanin content at 0.25 µM ([1]; 0.25 μM) [%]	% Viability ([2]; human, 72 h, 0.25 μM) [%]	% Viability ([2]; human, 72 h, 12.5 μM) [%]	% Viability ([2]; human, 72 h, 25 μM) [%]	other results
O=C(N[C@@H](CO)C(=O)N[C@@H](Cc1ccc(O)cc1)C(=O)OCc1ccccc1)OCc1ccccc1 [Compound 1, Benzyl (2S)-2-[((2S)-2-{[(benzyloxy)carbonyl]amino}-3-hydroxypropanoyl)amino]-3-(4-hydroxyphenyl)propanoate.] (HELM PEPTIDE1{[O=C(OCc1ccccc1)[*:2]].S.Y.[c1ccc(CO[*:1])cc1]}$$$$V2.0)	3.5	135.4	0.153	26.5	17.9	107.3	117.9	0.177	33.3	118.2	133.3	0.195	34.0	120.6	134.0	0.199	126	107	88.7	90.0	% Increase in Melanin ([1]; 6.25 μM): 20.6%; % Melanin ([1]; 6.25 μM): 115.2%; Normalized melanin content ([1]; 6.25 μM): 120.6; OD405 nm ([1]; 6.25 μM, control 0.165): 0.190; % Viability ([2]; human, 72 h, 3.125 μM): 91.0%; % Viability ([2]; human, 72 h, 6.25 μM): 95.5%
C=C[C@@]1(C)CC(=O)[C@]2(O)[C@@]3(C)[C@@H](O)CCC(C)(C)[C@@H]3[C@H](O)[C@H](OC(C)=O)[C@@]2(C)O1 [Forskolin, reference compound]																					% Increase in Melanin ([1]; 2.5 μM): 16.6%; % Melanin ([1]; 2.5 μM): 111.5%; Normalized melanin content ([1]; 2.5 μM): 116.6; OD405 nm ([1]; 2.5 μM, control 0.165): 0.184; % Increase in Melanin ([1]; 5 μM): 29.2%; % Melanin ([1]; 5 μM): 122.5%; Normalized melanin content ([1]; 5 μM): 129.2; OD405 nm ([1]; 5 μM, control 0.165): 0.202; % Increase in Melanin ([1]; 10 μM): 36.7%; % Melanin ([1]; 10 μM): 123.7%; Normalized melanin content ([1]; 10 μM): 136.7; OD405 nm ([1]; 10 μM, control 0.165): 0.204; % Viability ([2]; 2.5 μM, 72 hours): 95.6%; % Viability ([2]; 5 μM, 72 hours): 94.8%; % Viability ([2]; 10 μM, 72 hours): 90.5%
CC(C)Cn1c(=O)n(C)c(=O)c2[nH]cnc21 [IBMX, 3-isobutyl-1-methylxanthine, reference compound]									16.6	116.7	116.6	0.193	24.8	118.8	124.8	0.196			100.1	95.2	% Increase in Melanin ([1]; 50 μM): 28.2%; % Melanin ([1]; 50 μM): 116.7%; Normalized melanin content ([1]; 50 μM): 128.2; OD405 nm ([1]; 50 μM, control 0.165): 0.193; % Viability ([2]; human, 72 h, 50 μM): 91.0%

Now from value to compound, other results behind:

% increase in Tyrosinase activity (Tyrosinase) [%]	Compound	% Melanin [1, 3] [%]	OD405 nm ([1]; 0.25 μM, control 0.113)	% Increase in Melanin [1, 4] [%]	% Increase in Melanin ([1]; 3.125 μM) [%]	% Melanin ([1]; 3.125 μM) [%]	Normalized melanin content ([1]; 3.125 μM)	OD405 nm ([1]; 3.125 μM, control 0.165)	% Increase in Melanin ([1]; 12.5 μM) [%]	% Melanin ([1]; 12.5 μM) [%]	Normalized melanin content ([1]; 12.5 μM)	OD405 nm ([1]; 12.5 μM, control 0.165)	% Increase in Melanin ([1]; 25 μM) [%]	% Melanin ([1]; 25 μM) [%]	Normalized melanin content ([1]; 25 μM)	OD405 nm ([1]; 25 μM, control 0.165)	Normalized melanin content at 0.25 µM ([1]; 0.25 μM) [%]	% Viability ([2]; human, 72 h, 0.25 μM) [%]	% Viability ([2]; human, 72 h, 12.5 μM) [%]	% Viability ([2]; human, 72 h, 25 μM) [%]	other results
2.0	CC(C)[C@H](NC(=O)OCc1ccccc1)C(=O)N[C@@H](Cc1ccc(O)cc1)C(N)=O [Compound 2, Benzyl (1S)-1-({[(1S)-2-amino-1-(4-hydroxybenzyl)-2-oxoethyl]amino}carbonyl)-2-methylpropylcarbamate] (HELM PEPTIDE1{[O=C(OCc1ccccc1)[*:2]].V.Y.[am]}$$$$V2.0)	110.6	0.125	36.5	23.2	111.5	123.2	0.184	26.5	121.2	126.5	0.200	42.2	131.5	142.2	0.217	136	81	95.8	92.5	% Increase in Melanin ([1]; 1.5 μM): 16.9%; % Melanin ([1]; 1.5 μM): 106.7%; Normalized melanin content ([1]; 1.5 μM): 116.9; OD405 nm ([1]; 1.5 μM, control 0.165): 0.176; % Increase in Melanin ([1]; 6.25 μM): 14.7%; % Melanin ([1]; 6.25 μM): 114.5%; Normalized melanin content ([1]; 6.25 μM): 114.7; OD405 nm ([1]; 6.25 μM, control 0.165): 0.189; % Increase in Melanin ([1]; 50 μM): 25.8%; % Melanin ([1]; 50 μM): 126.6%; Normalized melanin content ([1]; 50 μM): 125.8; OD405 nm ([1]; 50 μM, control 0.165): 0.209; Increase in melanin content of melanocytes (in words) [1]: substantial increase in melanin content; Extent of increase in melanin content versus reference molecules (in words) ([1]; data of Table 3): comparable to known standard reference molecules (Forskolin and IBMX); % Viability ([2]; human, 72 h, 1.5 μM): 91.3%; % Viability ([2]; human, 72 h, 3.125 μM): 90.5%; % Viability ([2]; human, 72 h, 6.25 μM): 99.8%; % Viability ([2]; human, 72 h, 50 μM): 100.6%
0.8	C[C@@H](O)[C@H](NC(=O)OCc1ccccc1)C(=O)N[C@@H](Cc1ccc(O)cc1)C(N)=O [Compound 4, Benzyl (1S,2R)-1-({[(1S)-2-amino-1-(4-hydroxybenzyl)-2-oxoethyl]amino}carbonyl)-2-hydroxypropylcarbamate.] (HELM PEPTIDE1{[O=C(OCc1ccccc1)[*:2]].T.Y.[am]}$$$$V2.0)	102.7	0.116	−6.6													93.4	110			
1.8	CSCC[C@H](NC(=O)OCc1ccccc1)C(=O)N[C@@H](Cc1c[nH]c2ccccc12)C(=O)O [Compound 3, (2S)-2-{[(2S)-2-{[(benzyloxy)carbonyl]amino}-4-(methylthio)butanoyl]amino}-3-(1H-indol-3-yl)propanoic acid] (HELM PEPTIDE1{[O=C(OCc1ccccc1)[*:2]].M.W}$$$$V2.0)	106.2	0.120	7.3													107	99			Increase in melanin content of melanocytes (in words) [1]: not

From patent US11433012B2, “Peptides for increasing melanin in melanocytes” (Conopco, Inc., priority 2017, dated 2022)
